From patent publication US6339045B1, “N-(unsubstituted or substituted)-4-substituted-6-(unsubstituted or substituted)phenoxy-2-pyridinecarboxamides or thiocarboxamides, processes for producing the same, and herbicides” (Kureha Kagaku Kogyo Kabushiki Kaisha, priority 1995, dated 2002)

How the values were obtained:
Test in all cases: Herbicidal effect by foliage and soil treatment
Format in all cases: in vivo
Details in all cases: 10 g ai/10a, evaluated after 14 days
[1] = test system: common chickweed (Stellaria media)
Text: (§1) Experiment for Determination of Herbicidal Effect by Foliate and Soil Treatment Seeds of redroot pigweed (Amaranthus retroflexus), common blackjack (Bidens pilosa), kediock (Sinapis arvensis), common chickweed (Stellaria media), sicklepod (Cassia obtusifolia), black nightshade (Solanum nigrum), velvetleaf (Abutilon theophrasti), field bindweed (Convolvulus arvensis), wild chamomile (Matricaria chamomilla), cleavers (Galium aparine) and […] (Veronica hederaefolia), were uniformly sowed over a horticultural granular soil (produced by KUREHA CHEMICAL INDUSTRY, CO., LTD.; the same soil was used hereinafter) filled in a planter. The planter was placed in a greenhouse (maintained at 19 to 25° C.) to sprout these plants. Two seedlings of each sprouted plant were transplanted to a 10 cm-diameter pot filled with the horticultural granular soil and cultivated in the greenhouse (maintained at 19 to 25° C.) until reaching a cotyledonal to bifoliate period suited to the foliage and soil treatment. […] Next, additional amounts of Tween 20 and water were added to the obtained solution or suspension to produce a test solution. The plants prepared in the above (1) were placed within a frame having a predetermined inside area, and uniformly sprayed with the test solution using a sprayer such that the amount of each compound applied was controlled to a predetermined level. The plants sprayed with the test solution were placed again in the greenhouse (maintained at 19 to 25° C.) and cultivated therein. After 14 days, the degree of growth of each plant cultivated in the treated region was compared with that of plant cultivated in non-treated region, and evaluated according to the following ratings. The herbicidal activity of each test compound was represented by these ratings

[2] = test system: ivyleafspeedwell (Veronica hederaefolia)
Text: as §1

[3] = test system: redroot pigweed (Amaranthus retroflexus)
Text: as §1

[4] = test system: sicklepod (Cassia obtusifolia)
Text: as §1

[5] = test system: kediock (Sinapis arvensis)
Text: as §1

[6] = test system: wild chamomile (Matricaria chamomilla)
Text: as §1

[7] = test system: black nightshade (Solanum nigrum)
Text: as §1

[8] = test system: velvetleaf (Abutilon theophrasti)
Text: as §1

[9] = test system: common blackjack (Bidens pilosa)
Text: as §1

[10] = test system: cleavers (Galium aparine)
Text: as §1

[11] = test system: field bindweed (Convolvulus arvensis)
Text: as §1

| Structure (SMILES) | herbicidal activity rating, SM (Stellaria media) [1] | herbicidal activity rating, VH (Veronica hederaefolia) [2] | herbicidal activity rating, AR (Amaranthus retroflexus) [3] | herbicidal activity rating, CO (Cassia obtusifolia) [4] | herbicidal activity rating, SA (Sinapis arvensis) [5] | herbicidal activity rating, MC (Matricaria chamomilla) [6] | herbicidal activity rating, SN (Solanum nigrum) [7] | herbicidal activity rating, AT (Abutilon theophrasti) [8] | herbicidal activity rating, BP (Bidens pilosa) [9] | herbicidal activity rating, GA (Galium aparine) [10] | herbicidal activity rating, CA (Convolvulus arvensis) [11] |
| --- | --- | --- | --- | --- | --- | --- | --- | --- | --- | --- | --- |
| COc1cc(Oc2cccc(OC(F)(F)F)c2)nc(C(=O)NC(C)C)c1 [Compound I-39] | 5 (percentage of weeds killed was not less than 80%) | 5 (percentage of weeds killed was not less than 80%) | 5 (percentage of weeds killed was not less than 80%) | 5 (percentage of weeds killed was not less than 80%) | 5 (percentage of weeds killed was not less than 80%) | 4 (percentage of weeds killed was not less than 60% and less than 80%) | 5 (percentage of weeds killed was not less than 80%) | 5 (percentage of weeds killed was not less than 80%) | 3 (percentage of weeds killed was not less than 40% and less than 60%) | 5 (percentage of weeds killed was not less than 80%) | 5 (percentage of weeds killed was not less than 80%) |
| COc1cc(Oc2cccc(SC(F)(F)F)c2)nc(C(=O)NC(C)C)c1 [Compound I-40, N-(i-propyl)-4-methoxy-6-{3-(trifluoromethylmercapto)phenoxy}-2-pyridine carboxamide] | 5 (percentage of weeds killed was not less than 80%) | 5 (percentage of weeds killed was not less than 80%) | 5 (percentage of weeds killed was not less than 80%) | 5 (percentage of weeds killed was not less than 80%) | 5 (percentage of weeds killed was not less than 80%) | 4 (percentage of weeds killed was not less than 60% and less than 80%) | 5 (percentage of weeds killed was not less than 80%) | 5 (percentage of weeds killed was not less than 80%) | 4 (percentage of weeds killed was not less than 60% and less than 80%) | 5 (percentage of weeds killed was not less than 80%) | 5 (percentage of weeds killed was not less than 80%) |
| C=CCNC(=O)c1cc(OC)cc(Oc2cccc(C(F)(F)F)c2)n1 [Compound I-42] | 5 (percentage of weeds killed was not less than 80%) | 5 (percentage of weeds killed was not less than 80%) | 5 (percentage of weeds killed was not less than 80%) | 5 (percentage of weeds killed was not less than 80%) | 5 (percentage of weeds killed was not less than 80%) | 4 (percentage of weeds killed was not less than 60% and less than 80%) | 5 (percentage of weeds killed was not less than 80%) | 4 (percentage of weeds killed was not less than 60% and less than 80%) | 3 (percentage of weeds killed was not less than 40% and less than 60%) | 5 (percentage of weeds killed was not less than 80%) | 4 (percentage of weeds killed was not less than 60% and less than 80%) |
| COc1cc(Oc2cccc(C(F)(F)F)c2)nc(C(=O)NC2CCCCC2)c1 [Compound I-43] | 5 (percentage of weeds killed was not less than 80%) | 5 (percentage of weeds killed was not less than 80%) | 5 (percentage of weeds killed was not less than 80%) | 5 (percentage of weeds killed was not less than 80%) | 5 (percentage of weeds killed was not less than 80%) | 4 (percentage of weeds killed was not less than 60% and less than 80%) | 5 (percentage of weeds killed was not less than 80%) | 4 (percentage of weeds killed was not less than 60% and less than 80%) | 4 (percentage of weeds killed was not less than 60% and less than 80%) | 5 (percentage of weeds killed was not less than 80%) | 5 (percentage of weeds killed was not less than 80%) |
| CCNC(=S)c1cc(OC)cc(Oc2cccc(C(F)(F)F)c2)n1 [Compound I-44] | 5 (percentage of weeds killed was not less than 80%) | 5 (percentage of weeds killed was not less than 80%) | 5 (percentage of weeds killed was not less than 80%) | 5 (percentage of weeds killed was not less than 80%) | 5 (percentage of weeds killed was not less than 80%) | 3 (percentage of weeds killed was not less than 40% and less than 60%) | 5 (percentage of weeds killed was not less than 80%) | 4 (percentage of weeds killed was not less than 60% and less than 80%) | 4 (percentage of weeds killed was not less than 60% and less than 80%) | 5 (percentage of weeds killed was not less than 80%) | 4 (percentage of weeds killed was not less than 60% and less than 80%) |
| COc1cc(Oc2cccc(C(F)(F)F)c2)nc(C(=O)NCc2ccccc2)c1 [Compound I-45, N-benzyl-4-methoxy-6-{3-(trifluoromethyl)phenoxy}-2-pyridine carboxamide] | 5 (percentage of weeds killed was not less than 80%) | 5 (percentage of weeds killed was not less than 80%) | 5 (percentage of weeds killed was not less than 80%) | 5 (percentage of weeds killed was not less than 80%) | 5 (percentage of weeds killed was not less than 80%) | 2 (percentage of weeds killed was not less than 20% and less than 40%) | 5 (percentage of weeds killed was not less than 80%) | 4 (percentage of weeds killed was not less than 60% and less than 80%) | 5 (percentage of weeds killed was not less than 80%) | 5 (percentage of weeds killed was not less than 80%) | 5 (percentage of weeds killed was not less than 80%) |
